Where two headings read alike, the source gives them in different places.
Key:
CBP = CBP (Homo sapiens, UniProt Q92793); assay: binding to coactivator CBP (affinity chromatography; binding and isothermal calorimetry)
Source text: ICG-001. Applicant's pharmacologic tools were identified using cell-based forward chemical genomic screens of small molecule secondary structure template chemical libraries (22).
Applicant next mapped the binding domains between CBP and beta-catenin, as well as between p300 and beta-catenin. The C-terminal trans-activating region of beta-catenin (647-781) interacted with the same 1-111 amino acids of both CBP and p300 (23). However, only the interaction between CBP and beta-catenin was disrupted by ICG-001, and not the p300/beta-catenin interaction.

SW620 xenograft = assay: nude mouse SW620 xenograft model of colon cancer; settings: in vivo
Source text: Cancer. The importance of Wnt signaling in colorectal cancer is undisputed. Applicant's investigation on the therapeutic utility of ICG-001 therefore quite naturally began with colon cancer.

hair follicle = settings: cited from earlier work

Sequence of CBP (Q92793 whole entry): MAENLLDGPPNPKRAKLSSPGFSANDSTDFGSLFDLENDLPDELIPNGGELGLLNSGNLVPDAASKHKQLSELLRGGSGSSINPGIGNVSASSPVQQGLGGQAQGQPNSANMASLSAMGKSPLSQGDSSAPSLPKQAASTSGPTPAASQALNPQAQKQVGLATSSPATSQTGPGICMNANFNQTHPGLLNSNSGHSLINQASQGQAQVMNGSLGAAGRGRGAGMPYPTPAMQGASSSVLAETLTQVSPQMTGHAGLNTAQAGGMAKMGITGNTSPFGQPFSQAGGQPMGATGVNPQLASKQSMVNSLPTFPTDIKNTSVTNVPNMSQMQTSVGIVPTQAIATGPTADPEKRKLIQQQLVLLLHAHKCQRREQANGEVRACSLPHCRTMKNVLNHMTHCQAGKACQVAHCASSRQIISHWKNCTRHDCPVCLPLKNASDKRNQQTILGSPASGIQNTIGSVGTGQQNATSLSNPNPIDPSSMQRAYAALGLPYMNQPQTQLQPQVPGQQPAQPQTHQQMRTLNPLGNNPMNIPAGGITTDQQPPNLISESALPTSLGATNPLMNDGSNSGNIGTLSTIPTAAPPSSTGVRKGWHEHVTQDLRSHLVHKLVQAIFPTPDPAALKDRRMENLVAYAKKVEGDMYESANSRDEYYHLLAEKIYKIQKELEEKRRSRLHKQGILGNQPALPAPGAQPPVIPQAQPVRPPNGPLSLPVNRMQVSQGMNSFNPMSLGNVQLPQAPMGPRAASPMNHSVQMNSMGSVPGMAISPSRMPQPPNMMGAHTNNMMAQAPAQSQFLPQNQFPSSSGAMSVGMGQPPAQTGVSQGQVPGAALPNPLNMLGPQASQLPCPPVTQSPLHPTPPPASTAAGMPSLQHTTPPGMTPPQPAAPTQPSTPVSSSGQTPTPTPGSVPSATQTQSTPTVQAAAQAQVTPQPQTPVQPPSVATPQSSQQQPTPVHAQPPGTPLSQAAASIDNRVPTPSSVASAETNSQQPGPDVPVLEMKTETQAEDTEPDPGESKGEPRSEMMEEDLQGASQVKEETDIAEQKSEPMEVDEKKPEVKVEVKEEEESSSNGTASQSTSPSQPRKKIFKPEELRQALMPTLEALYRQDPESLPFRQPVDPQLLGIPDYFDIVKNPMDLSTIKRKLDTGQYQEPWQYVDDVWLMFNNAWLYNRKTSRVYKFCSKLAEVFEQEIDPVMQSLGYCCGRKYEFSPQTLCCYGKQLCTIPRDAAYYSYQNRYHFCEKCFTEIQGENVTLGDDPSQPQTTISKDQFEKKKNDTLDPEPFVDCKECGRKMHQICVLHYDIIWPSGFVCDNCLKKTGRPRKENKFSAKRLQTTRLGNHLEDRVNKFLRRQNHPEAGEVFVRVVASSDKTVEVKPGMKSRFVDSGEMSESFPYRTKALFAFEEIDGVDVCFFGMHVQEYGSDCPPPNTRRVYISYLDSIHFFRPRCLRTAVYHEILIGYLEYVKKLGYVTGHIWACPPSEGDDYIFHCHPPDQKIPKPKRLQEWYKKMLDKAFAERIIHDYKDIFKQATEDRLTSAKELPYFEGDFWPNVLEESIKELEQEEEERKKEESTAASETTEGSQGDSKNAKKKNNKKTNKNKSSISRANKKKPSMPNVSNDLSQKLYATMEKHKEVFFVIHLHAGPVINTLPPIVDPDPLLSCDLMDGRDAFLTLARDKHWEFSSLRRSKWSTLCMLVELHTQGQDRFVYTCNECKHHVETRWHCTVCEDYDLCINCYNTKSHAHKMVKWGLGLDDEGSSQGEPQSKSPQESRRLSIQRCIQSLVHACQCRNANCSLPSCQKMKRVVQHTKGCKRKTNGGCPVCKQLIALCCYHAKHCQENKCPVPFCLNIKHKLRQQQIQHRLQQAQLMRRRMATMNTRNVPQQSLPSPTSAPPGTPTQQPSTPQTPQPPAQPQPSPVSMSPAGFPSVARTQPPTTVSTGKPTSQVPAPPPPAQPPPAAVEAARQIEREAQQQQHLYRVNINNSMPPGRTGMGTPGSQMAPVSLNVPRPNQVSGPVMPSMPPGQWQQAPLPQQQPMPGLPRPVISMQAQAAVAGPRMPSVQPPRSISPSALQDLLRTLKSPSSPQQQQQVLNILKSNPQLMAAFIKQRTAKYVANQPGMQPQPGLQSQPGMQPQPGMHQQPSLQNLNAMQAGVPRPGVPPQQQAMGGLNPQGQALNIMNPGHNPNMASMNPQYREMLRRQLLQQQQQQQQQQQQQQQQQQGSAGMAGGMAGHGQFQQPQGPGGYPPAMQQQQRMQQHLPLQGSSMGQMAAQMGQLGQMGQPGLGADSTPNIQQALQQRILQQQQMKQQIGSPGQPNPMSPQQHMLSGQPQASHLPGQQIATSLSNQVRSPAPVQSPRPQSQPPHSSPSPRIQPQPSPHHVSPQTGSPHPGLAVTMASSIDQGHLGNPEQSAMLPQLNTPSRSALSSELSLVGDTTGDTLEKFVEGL

Kd (CBP; affinity chromatography approach, read-out: binding affinity to the coactivator CBP): ~1 nM
Kd (CBP; binding and isothermal calorimetry studies, read-out: binding affinity to the N-terminus of CBP): ~1 nM
SMILES: O=C1[C@H](Cc2ccc(O)cc2)N2C(=O)CCN(C(=O)NCc3ccccc3)[C@H]2CN1Cc1cccc2ccccc12 [ICG-001]
tumor growth (SW620 xenograft): reducing tumor growth
survivin expression (hair follicle): decreased survivin expression
hair fiber elongation (hair follicle; dose-dependent): significantly reduced hair fiber elongation

— patent publication US9371330B2, “Substituted pyrazino[1,2-a]pyrimidines useful as CBP/catenin antagonists for enhancing asymmetric division of somatic stem cells” (University of Southern California, priority 2011, dated 2016)
